Patent US8653056B2, “Method of preparation of a soluble formulation of water-insoluble pentacyclic and tetracyclic terpenoids, a soluble formulation of a pentacyclic or tetracyclic terpenoid and a pharmaceutical composition containing this soluble formulation” (Univerzita Karlova V Praze, Prirodovedecka Fakulta, priority 2006, dated 2014)

Key:
[1] = Concentration of dissolved triterpenoid in the aqueous cyclodextrin solution (HPLC-ESI MS); assay type: physicochemical; conditions: 2-hydroxypropyl-γ-cyclodextrin, 50° C.
Protocol: Into the resulting colourless, viscous solution, soluble triterpene derivative (1.50 g) is added at once and the mixture is again vigorously stirred at the temperature of 50° C. […] After the triterpenoid is completely dissolved, the resulting clear solution is cooled to room temperature, filtered with a syringe filter (hydrophilic, pore size 0.22 μm) in order to be sterile and is placed in a refrigerator.
Method B: In a mixture of water (14.0 ml) and propylene glycol (6.0 ml), 2-hydroxypropyl-γ-cyklodextrin (7.00 g) is dissolved at the temperature of 50° C. under vigorous stirring. Into the resulting colourless, viscous solution, soluble triterpene derivate (1.00 g) is added at once and is again vigorously stirred at the temperature of 50° C. […] After the triterpenoid is completely dissolved, the resulting clear solution is cooled to room temperature, filtered with a syringe filter (hydrophilic, pore size 0.22 μm) in order to be sterile and is placed in a refrigerator.
Analytic Determination of the Concentration of Dissolved Triterpenoids in the Application Form and in Plasma Samples
(§1) HPLC-ESI MS technique was used or the determination of the concentration of dissolved triterpenoids. The samples were measured in one analytical batch with calibration solutions and blind control. The sample for the measurement was prepared from 50 μl of aqueous solution containing the inclusion compound by dilution with methanol to the volume of 10 ml. Subsequently, 10 μl of the sample solution after the first dilution is further diluted to 1 ml by the mobile phase. The blind control was obtained from 50 μl of pre-prepared aqueous solution of 2-hydroxypropyl-γ-cyklodextrin by dilution with methanol to 10 ml. Subsequently, 10 μl of the blind control solution after the first dilution is further diluted to 1 ml by methanol. Stock solutions of standards (concentration 0.2 mg/ml) were prepared by weighing 2.00 mg of analyte to 10 ml graduated flask and dissolution in methanol. The calibration samples were then prepared by dilution of the stock solution with mobile phase (0.4 μg/ml resp. 4 μg/ml).
The concentration was determined by comparison with standard and calculated to the original solution containing the inclusion compound.

[2] = Bioavailability and pharmacokinetic profile at oral administration to laboratory mice; assay type: in vivo, outbred mice CD-1; conditions: intragastric single dose 200 μl, soluble cyclodextrin formulation
Protocol: Determination of Bioavailability and Pharmacokinetic Profile at Oral Administration of the Compounds to Laboratory Mice
Soluble cyclodextrin formulations of terpenoid compounds, prepared in accordance with the aforementioned methods A or B, were administered without dilution to outbred mice CD-1 intragastrically (200 μl in a single dose) as aqueous solutions by injection syringe equipped with a gastric tube. Insoluble compounds were administered intragastrically as well (200 μl in a single dose), but in the form of aqueous suspensions in 0.5-1% carboxymethyl cellulose. In time intervals 2, 4, 6, 8, 12 and 24 h, blood was taken from the mice, the blood was centrifuged and the obtained plasma was subsequently analysed by HPLC-ESI MS technique.
as §1
The analysis was carried out at ODS Hypersil 125×2.1 mm, 5 um, SN 0745415X, Thermo EC column, ODS 4.0×3.0 mm precolumn, Phenomenex, mobile phase A—100 mmol/L aqueous solution of ammonium formate, pH is adjusted to 5 by formic acid, B—100 mmol/L methanolic solution of ammonium formate, column temperature: 25° C., linear gradient or isocratic elution, injected volume 30 μl. The concentration was determined by comparison with standard and calculated to the original solution containing the inclusion compound.

[3] = solution method A: water, saturated sodium hydrogencarbonate solution, ethanol
[4] = solution method B: water, propylene glycol

Compound	Conc. of dissolved substance [1, 3] [mg/mL]	Conc. of dissolved substance [1, 4]	oral availability [2]
C=C(C)C1CCC2(C(=O)OC)CCC3(C)C(CCC4C5(C)CCC(OC(=O)C6CC=CCC6C(=O)O)C(C)(C)C5CCC43C)C12 (mixture of isomers) [2m]	43		
C=C(C)C1CCC2(COC(=O)CCC(=O)O)CCC3(C)C(CCC4C5(C)CCC(OC(=O)CCC(=O)O)C(C)(C)C5CCC43C)C12 (stereo not drawn) [1a, betulin dihemisuccinate]	54		
C=C(C)[C@@H]1CC[C@]2(COC(=O)c3ccccc3C(=O)O)CC[C@]3(C)[C@H](CC[C@@H]4[C@@]5(C)CC[C@H](OC(=O)c6ccccc6C(=O)O)C(C)(C)[C@@H]5CC[C@]43C)[C@@H]12 [1b, betulin dihemiphtalate]	39		
C=C(C)[C@@H]1CC[C@]2(CO[C@@H]3O[C@H](CO)[C@@H](O)[C@H](O)[C@H]3O)CC[C@]3(C)[C@H](CC[C@@H]4[C@@]5(C)CC[C@H](O[C@@H]6O[C@H](CO)[C@@H](O)[C@H](O)[C@H]6O)C(C)(C)[C@@H]5CC[C@]43C)[C@@H]12 [1c, betulin diglucoside]		55 mg/mL	
C=C(C)[C@@H]1CC[C@]2(C(=O)OCC)CC[C@]3(C)[C@H](CC[C@@H]4[C@@]5(C)CC[C@H](O)C(C)(C)[C@@H]5CC[C@]43C)[C@@H]12 [2a, Ethyl-betulinate]		n (n = concentration lower than the detection threshold, i.e. 1 ng/ml)	
C=C(C)[C@@H]1CC[C@]2(C(=O)OCC)CC[C@]3(C)[C@H](CC[C@@H]4[C@@]5(C)CC[C@H](OC(=O)CCC(=O)O)C(C)(C)[C@@H]5CC[C@]43C)[C@@H]12 [2b]	45		prove oral availability
C=C(C)[C@@H]1CC[C@]2(C(=O)OCC)CC[C@]3(C)[C@H](CC[C@@H]4[C@@]5(C)CC[C@H](OC(=O)c6ccccc6C(=O)O)C(C)(C)[C@@H]5CC[C@]43C)[C@@H]12 [2c]	41		
C=C(C)[C@@H]1CC[C@]2(C(=O)OCC)CC[C@]3(C)[C@H](CC[C@@H]4[C@@]5(C)CC[C@H](O[C@@H]6O[C@H](CO)[C@@H](O)[C@H](O)[C@H]6O)C(C)(C)[C@@H]5CC[C@]43C)[C@@H]12 [2d]		43 mg/mL	
C=C(C)[C@@H]1CC[C@]2(C(=O)O)CC[C@]3(C)[C@H](CC[C@@H]4[C@@]5(C)CC[C@H](OC(=O)CCC(=O)O)C(C)(C)[C@@H]5CC[C@]43C)[C@@H]12 [2e]	51		
C=C(C)[C@@H]1CC[C@]2(C(=O)OC)CC[C@]3(C)[C@H](CC[C@@H]4[C@@]5(C)CC[C@H](O)C(C)(C)[C@@H]5CC[C@]43C)[C@@H]12 [2h, Methyl betulinate]		n (n = concentration lower than the detection threshold, i.e. 1 ng/ml)	
C=C(C)[C@@H]1CC[C@]2(C(=O)O[C@@H]3O[C@H](CO)[C@@H](O)[C@H](O)[C@H]3O)CC[C@]3(C)[C@H](CC[C@@H]4[C@@]5(C)CC[C@H](O)C(C)(C)[C@@H]5CC[C@]43C)[C@@H]12 [2j]	59	70 mg/mL	
C=C(C=O)[C@@H]1CC[C@]2(C(=O)OCC)CC[C@]3(C)[C@H](CC[C@@H]4[C@@]5(C)CC[C@H](O)C(C)(C)[C@@H]5CC[C@]43C)[C@@H]12 [3a]		n (n = concentration lower than the detection threshold, i.e. 1 ng/ml)	
CC(=O)O[C@H]1CC[C@]2(C)[C@H]3CC[C@@H]4C5=C(C(C)C)C(=O)C[C@]5(C(=O)OCC(=O)O)CC[C@@]4(C)[C@]3(C)CC[C@H]2C1(C)C [4a]	59		
CC(=O)O[C@H]1CC[C@]2(C)[C@H]3CC[C@@H]4C5=C(C(C)C)C(=O)C[C@]5(C(=O)OCC[N+](C)(C)C)CC[C@@]4(C)[C@]3(C)CC[C@H]2C1(C)C.[Br-] [4b]		47 mg/mL	
CC(=O)O[C@H]1CC[C@]2(C)[C@H]3CC[C@@H]4C5=C(C(C)C)C(=O)C[C@]5(C(=O)OCC[n+]5ccccc5)CC[C@@]4(C)[C@]3(C)CC[C@H]2C1(C)C.[Br-] [4c]		33 mg/mL	
COC(=O)C12CCC3(C)C(CCC4C5(C)CCC(O)C(C)(C)C5CCC43C)C1=C(C(C)C)C(=O)C2 (stereo not drawn) [4d]		n (n = concentration lower than the detection threshold, i.e. 1 ng/ml)	
CCOC(=O)[C@@]12CC[C@]3(C)[C@H](CC[C@@H]4[C@@]5(C)CC[C@H](OC(=O)CCC(=O)O)C(C)(C)[C@@H]5CC[C@]43C)C1=C(C(C)C)C(=O)C2 [4e]	53		
CCOC(=O)[C@@]12CC[C@]3(C)[C@H](CC[C@@H]4[C@@]5(C)CC[C@H](OC(=O)c6ccccc6C(=O)O)C(C)(C)[C@@H]5CC[C@]43C)C1=C(C(C)C)C(=O)C2 [4f]	28		
CCOC(=O)[C@@]12CC[C@]3(C)[C@H](CC[C@@H]4[C@@]5(C)CC[C@H](O[C@@H]6C[C@@H](OC(C)=O)[C@@H](OC(C)=O)[C@@H](COC(C)=O)O6)C(C)(C)[C@@H]5CC[C@]43C)C1=C(C(C)C)C(=O)C2 [4j]		60 mg/mL	
COC(=O)[C@@]12CC[C@]3(C)[C@H](CC[C@@H]4[C@@]5(C)CC[C@H](O[C@@H]6C[C@@H](OC(C)=O)[C@H](OC(C)=O)[C@@H](COC(C)=O)O6)C(C)(C)[C@@H]5CC[C@]43C)C1=C(C(C)C)C(=O)C2 [4l]		61 mg/mL	
CCOC(=O)[C@@]12CC[C@]3(C)[C@H](CC[C@@H]4[C@@]5(C)CC[C@H](OC(=O)CC(C)(C)CC(=O)O)C(C)(C)[C@@H]5CC[C@]43C)C1=C(C(C)C)C(=O)C2 [4q]	58		
CCOC(=O)[C@@]12CC[C@]3(C)[C@H](CC[C@@H]4[C@@]5(C)CC[C@H](OC(=O)CC(C)(C)C(=O)O)C(C)(C)[C@@H]5CC[C@]43C)C1=C(C(C)C)C(=O)C2 [4r]	44		
COC(=O)[C@@]12CC[C@]3(C)[C@H](CC[C@@H]4[C@@]5(C)CC[C@H](OC(=O)CC(C)(C)C(=O)O)C(C)(C)[C@@H]5CC[C@]43C)C1=C(C(C)C)C(=O)C2 [4s]	44		
CC(C)C1=C2[C@H]3CC[C@@H]4[C@@]5(C)CC[C@H](OC(=O)CC(C)(C)CC(=O)O)C(C)(C)[C@@H]5CC[C@@]4(C)[C@]3(C)CC[C@@]2(C(=O)O)CC1=O [4u]	44		
CCOC(=O)[C@@]12CC[C@]3(C)[C@H](CC[C@@H]4[C@@]5(C)CC[C@H](OC(=O)COCC(=O)O)C(C)(C)[C@@H]5CC[C@]43C)C1=C(C(C)C)C(=O)C2 [4x]	44		
CC1(C)C(OC(=O)CCC(=O)O)CCC2(C)C1CCC1(C)C2CCC2C(=O)C(COC(=O)CCC(=O)O)(C(=O)O)CCC21C (stereo not drawn) [7c]	73		
CC1(C)C(OC2OC(CO)C(O)C(O)C2O)CCC2(C)C1CCC1(C)C2CCC2C(=O)C(COC3OC(CO)C(O)C(O)C3O)(C(=O)O)CCC21C (stereo not drawn) [7f]	72	79 mg/mL	
C=C(C)[C@@H]1CC[C@]2(CO)CC[C@]3(C)[C@H](CC[C@@H]4[C@@]5(C)CC[C@H](O)C(C)(C)[C@@H]5CC[C@]43C)[C@@H]12 [Betulin, reference compound]		n (n = concentration lower than the detection threshold, i.e. 1 ng/ml)	
C=C(C)[C@@H]1CC[C@]2(C(=O)O)CC[C@]3(C)[C@H](CC[C@@H]4[C@@]5(C)CC[C@H](O)C(C)(C)[C@@H]5CC[C@]43C)[C@@H]12 [compound 2, Betulinic acid, reference compound]	38		
C=C(C=O)[C@@H]1CC[C@]2(C(=O)OCC)CC[C@]3(C)[C@H](CC[C@@H]4[C@@]5(C)CC[C@H](OC(=O)c6ccccc6C(=O)O)C(C)(C)[C@@H]5CC[C@]43C)[C@@H]12 [hemiphtalate 3b]	40		
